Experimental data from a melting point compilation (Tetko et al.; mined from patent text by program, amines drawn as free bases though some values may be those of a salt).

| melting point [°C] | SMILES |
| --- | --- |
| 184 to 185 | N#CC1=C(n2cccc2)Oc2c(ccc3ccccc23)C1c1cccc([N+](=O)[O-])c1 (stereo not given) |
| 109 to 111 | CNC(=O)c1oc(C(C)(C)C)cc1NC(=O)Nc1ccc(F)cc1 |
| 166 to 169 | CCOCc1nc(C(C)(C)O)c(C(=O)O)n1Cc1ccc(-c2ccccc2C(=O)O)cc1 |
| 143 to 145 | CNc1cc(Br)cc(S(=O)(=O)c2ccccc2)c1 |
| 63 | CCCCOc1ccc(Cc2nn(-c3ccccc3Cl)c(=O)o2)cc1 |
| 176 to 177 | Cc1cc(Cl)ccc1NC(=S)Nc1ncccc1OCc1c(F)cccc1Cl |
| > 250 | CONC(=O)COc1cc2c(cc1C#Cc1ccccc1)NC(=O)CC(c1cccc(C#N)c1)=N2 |
| 147 to 149 | Cc1c(CCN(C)C(=O)OC(C)(C)C)c2cc(S(=O)(=O)c3ccccc3)ccc2n1C |
| 146 to 148 | CC(C)C(NC(=O)OCc1csc(N2CCCC2)n1)C(=O)NC(Cc1ccccc1)CC(O)C(Cc1ccccc1)NC(=O)OCc1cncs1 (stereo not given) |
| 170 to 172 | CS(=O)(=O)c1ccc(-n2nc(C(F)(F)F)cc2-c2ccc(C#Cc3ccccc3)cc2)cc1 |
| 108 to 111 | N#Cc1cnc2cnc(F)cc2c1Nc1ccc(F)c(Cl)c1 |
| 151 to 152 | C#CCSC1NN=C(c2ccncc2)N1c1ccccc1 (stereo not given) |
| 250 | COc1ccc(C(=O)Nc2ccc(C(=O)O)cc2)cc1C(C)(C)C |
| 86 to 87 | CCOC(=O)Cc1ccc(OCc2nc(-c3ccccc3)oc2C)c(OC)c1 |
| 114 | COc1ccc2ccc(N3C(=O)c4ccccc4C3OC(=O)COCC(C)C)nc2n1 (stereo not given) |
| 147 to 149 | COCc1nc(NC(=O)NS(=O)(=O)c2ccccc2C(=O)OC)nc(SC)n1 |
| 226 to 230 | CCc1nc2c(N)nc3ccc(OCc4ccccc4)cc3c2n1CCCCNC(=O)c1ccccc1 |

| melting point [°C] | SMILES |
| --- | --- |
| 65.5 to 66.5 | Cc1cc(C)c(C(=O)c2ccc(Cl)cc2)c(C)c1 |
| 104 to 105 | O=C(O)C(Cc1ccccc1)Cc1ccc([N+](=O)[O-])cc1 (stereo not given) |
| 111 to 145 | O=C(O)c1cccc(-c2ccnc3cc(Cc4cccc(C(F)(F)F)c4)nn23)c1 |
| 51 to 55 | CN(Cc1ccc2c(Br)c(OCC#N)ccc2c1)C(=O)c1oc2ccccc2c1CCc1ccccc1 |
| 122 to 123 | CCOC(=O)COc1cc(Cl)c2c(=O)c(-c3ccccc3C)coc2c1 |
| 179 to 180 | COc1ccc(C2CC(=O)N(c3ccncc3)C2=O)cc1 (stereo not given) |
| 254 to 256 | N#Cc1cnc2cc(-c3ccc(CN4CCOCC4)cc3)sc2c1Nc1ccc(Oc2ccccc2)cc1 |
| 48 to 52 | O=C(O)C[C@@H](Cc1ccccc1)C(=O)OCc1ccccc1 |
| 117 to 118 | CC(C)(CCCc1cccnc1)NC(=O)Cc1ccccc1[N+](=O)[O-] |
| 242 | CSc1nn(C(=S)Oc2ccccc2)c(=O)n1C |
| 148 to 149 | CCOC(=O)COc1ccc(C(=O)Nc2ccccc2Sc2ccc(-c3nnn[nH]3)cc2)cc1 |
| 158 to 163 | COc1ccc(C(=O)Cc2ncccc2C(=O)O)cc1 |
| 162 to 164 | Cc1cn2c(C(F)(F)F)nnc2c2ccccc12 |
| 229 to 231 | Cn1nc(C(=O)NCc2ccc(Cl)cc2)c(=O)c2cc(C#CCO)ccc21 |
| 188 to 193 | Cc1ccc(C(C#N)(Cc2c[nH]cn2)c2ccccc2)cc1 (stereo not given) |
| 167 to 168 | O=C(Nc1ccc(F)cn1)c1ccc(NCc2ccccc2)nc1 |

More lines, now with the values behind:

| SMILES | melting point [°C] |
| --- | --- |
| Cc1cc(C(=O)c2[nH]c3ccc(Cl)cc3c2CC(=O)O)no1 | 253 to 255 |
| O=[N+]([O-])c1ccc2oc(-c3sccc3CN3CCOCC3)nc2c1 | 143 to 145 |
| CCCCCCCCCCCCCCCCOc1cc(O)c(NC(C)=O)cc1C12CC3CC(CC(C3)C1)C2 | 146 to 148 |
| CC(=O)N1CCc2ccc(C(O)CCCN3CCC(c4ccc(Cl)cc4)CC3)cc2CC1 (stereo not given) | 113 to 114 |
| COC(=O)C(C)NC(=O)c1cc2cc(Cl)ccc2[nH]1 (single isomer, unassigned; (+)) | 199 to 201 |
| O=C(O)c1ccc(CCCC2SCC(=O)N2CCC2(O)CCCCC2)s1 (stereo not given) | 122 to 123 |
| COc1ccc(NCCCOc2ccc3ccc(OCCCNc4ccc(OC)cc4)cc3c2)cc1 | 127 |
| COc1ccc(/C=C/C(=O)Nc2cc(OC)c(OC)cc2C(=O)O)cc1OC | 236 to 239 |
| CC1CCc2c(-n3cccc3)ccc3c(=O)c(C(=O)O)cn1c23 (stereo not given) | 303 to 305 |
| Nc1cc(Br)c([N+](=O)[O-])cc1Br | 178 |
| CCCCOC(=O)[C@H]1CN(c2ccc(N3CCSCC3)cc2)C(=O)O1 | 95.5 to 98 |
| CCCCC(O)(Cn1ccnc1)c1ccc(Cl)cc1Cl (stereo not given) | 78 to 80 |
| O=P1(Oc2c(Cl)cc(Cl)cc2Cl)OCC2(CO1)COP(=O)(Oc1c(Cl)cc(Cl)cc1Cl)OC2 (stereo not given) | 283 |
| COc1cc(COc2nn(CCO)cc2C=O)ccc1OCc1nc(-c2ccco2)oc1C | 149 to 150 |
| N#Cc1c(Br)[nH]c(Br)c1Br | 151 to 152 |
| Cn1c(=O)c2c(ncn2CC(O)COC(=O)COc2ccc(Cl)cc2)n(C)c1=O (stereo not given) | 81 to 83 |
| Cc1oc2cc(C=O)ccc2c1C | 73 to 74 |
| c1ccc(N2c3ccccc3[C@@H]3CNCC[C@H]32)cc1 | 74 to 76 |
| Nc1ccc2ccc(N)nc2n1 | 222 to 223 |

| SMILES | melting point [°C] |
| --- | --- |
| COc1ccc2[nH]cc(-c3cc4c(C#N)ccnc4[nH]3)c2c1 | 303 to 304 |
| COc1cc(C(=O)CCCN2CCC(OC(=O)c3cc(Cl)c(N)c4c3OC(C)(C)C4)CC2)cc(OC)c1OC | 154 |
| Cc1cccc(S(=O)(=O)Nc2cc(C)c(S(=O)(=O)C[N+](=O)[O-])c(C)c2)c1 | 179 to 181 |
| CC(C)=CCOC1(C(F)(F)F)CN(C2CC2)C(=O)Nc2ccc(Cl)cc21 (stereo not given) | 130 to 131 |
| COC(=O)c1sccc1S(=O)(=O)NC(=O)Nc1nc(C)cc(OC)n1 | 165 to 173 |
| CCOC(=O)C(C)Oc1cc(F)ccc1[N+](=O)[O-] (stereo not given) | 64 to 65 |
| CC1(C)COC(=O)N1Cc1ccccc1[N+](=O)[O-] | 103 to 106 |
| CC(C)(C)ON1C(C)(C)CC(OC(=O)c2ccccc2)CC1(C)C | 80 to 82.5 |
| CCOC(=O)COc1cc2cc(C(C)O)sc2c(Cl)c1Cl (stereo not given) | 101 to 103 |
| O=[N+]([O-])c1ccc(Oc2ccc(C(F)(F)F)cc2Cl)nc1 | 69 to 72 |
| CC(=O)SCC(=O)C1CCC2C3CCC4CC(O)C(N5CCOC(C)(C)C5)CC4(C)C3C(=O)CC12C (stereo not given) | 181 to 182 |
| CN(C)c1cc(CO)ncn1 | 137 to 139 |
| COc1cc(N)c([N+](=O)[O-])cc1NCCO | 165 |
| Cc1cc(NC(=O)Cc2ccccc2C(F)(F)F)cc(C)c1S(=O)(=O)C[N+](=O)[O-] | 203 to 204 |
| CN(C)CCc1c[nH]c2ccc(CC3COC(=O)N3)cc12 (stereo not given) | 138 to 140 |
| COC(=N)c1ncn(C2OC(CO)C(O)C2O)n1 (stereo not given) | 150 to 153 |
| CCCCOc1ccc(S(N)(=O)=O)cc1 | 99 to 101 |
| CC(C)(C)c1cc(CN=[N+]=[N-])nn1-c1ccc(S(C)(=O)=O)cc1 | 115 to 117 |
